Experimental data taken from patent US6737383B1, “Herbicidal oxadiazolidines” (priority 1999, dated 2004).

Assays:
[1] = test system: purple nutsedge; experiment: Test B pre/postemergence purple nutsedge; assay type: in vivo, Cyperus rotundus
Summary of the method: (§1)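 Response is a visual 0-to-10 score relative to untreated plants, where 0 means no effect and 10 means complete control, taken twelve to sixteen days after application. Treatments went onto soil at planting and onto foliage of 1- to 4-leaf plants, using a surfactant-containing non-phytotoxic solvent.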

[2] = test system: rice; experiment: Test B flood test rice; assay type: in vivo, Oryza sativa
Summary of the method: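 Flood test on plants grown to the 2-leaf stage; treated plants kept in greenhouse twelve to sixteen days, then visually rated against controls on a 0 (no effect) to 10 (complete control) scale.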

[3] = test system: pigweed; experiment: Test B pre/postemergence pigweed; assay type: in vivo, Amaranthus retroflexus
Summary of the method: as §1

[4] = test system: sugar beet; experiment: Test B pre/postemergence sugar beet; assay type: in vivo, Beta vulgaris
Summary of the method: as §1

[5] = Postemergence, Rate 62 g/ha, scale 0 to 10, 0 is no effect, 10 is complete control
[6] = Postemergence, Rate 250 g/ha, scale 0 to 10, 0 no effect, 10 complete control
[7] = Preemergence, Rate 62 g/ha, scale 0 to 10, 0 is no effect, 10 is complete control
[8] = Preemergence, Rate 125 g/ha, scale 0 to 10 (0 no effect, 10 complete control)
[9] = Preemergence, Rate 250 g/ha, scale of 0 to 10 where 0 is no effect and 10 is complete control
[10] = Preemergence, Rate 500 g/ha, scale 0 (no effect) to 10 (complete control)
[11] = Rate 125 g/ha, Postemergence, scale 0 to 10, 0 no effect, 10 complete control
[12] = Rate 500 g/ha, Postemergence, 0 to 10 scale (0 no effect, 10 complete control)
[13] = Rate 125 g/ha, Postemergence section (flood test species), scale 0 to 10, 0 no effect, 10 complete control
[14] = Rate 500 g/ha, Postemergence section of Table B, 0 to 10 scale (0 no effect, 10 complete control)
[15] = flood test, listed under Postemergence, Rate 250 g/ha, scale 0 to 10, 0 no effect, 10 complete control
[16] = Preemergence, Rate 62 g/ha, scale 0 to 10 (0 no effect, 10 complete control)
[17] = Rate 500 g/ha, Postemergence, scale 0 to 10, 0 no effect, 10 complete control

SMILES	Nutsedge plant response rating [1, 5]	Nutsedge plant response rating [1, 6]	Plant response rating, Nutsedge [1, 8]	Plant response rating, Nutsedge [1, 9]	Nutsedge plant response rating [1, 10]	Nutsedge plant response rating [1, 11]	Rice plant response rating [2, 5]	Rice plant response rating [2, 13]	Rice plant response rating [2, 15]	Redroot pigweed plant response rating [3, 5]	Redroot pigweed plant response rating [3, 6]	Plant response rating, Redroot pigweed [3, 8]	Plant response rating, Redroot pigweed [3, 9]	Redroot pigweed plant response rating [3, 10]	Redroot pigweed plant response rating [3, 11]	Sugarbeets plant response rating [4, 5]	Plant response rating, Sugarbeets [4, 8]	Plant response rating, Sugarbeets [4, 9]	Sugarbeets plant response rating [4, 10]	Sugarbeets plant response rating [4, 11]	also measured
CC(C)N(C(=O)n1oc(=O)n(-c2cc(Cl)ccc2Cl)c1=O)c1ccc(F)cc1 [Compound 16]	0	0	0	0	0	0	0	0	0	0	0	0	0	0	0	0	0	0	0	0	Plant response rating, Nutsedge [1, 7]: 0; Nutsedge plant response rating [1, 12]: 0; Rice plant response rating [2, 14]: 0; Plant response rating, Redroot pigweed [3, 7]: 0; Redroot pigweed plant response rating [3, 12]: 0; Sugarbeets plant response rating [4, 6]: 0; Plant response rating, Sugarbeets [4, 7]: 0
CC(C)N(C(=O)n1oc(=O)n(-c2ccc(Cl)cc2C(F)(F)F)c1=O)c1ccc(F)cc1 [Compound 20]	0	0	0	0	0	0	0	0	0	3	3	2	4	9	3	0	0	2	7	0	Plant response rating, Nutsedge [1, 7]: 0; Nutsedge plant response rating [1, 12]: 0; Rice plant response rating [2, 14]: 2; Plant response rating, Redroot pigweed [3, 7]: 0; Redroot pigweed plant response rating [3, 12]: 4; Plant response rating, Sugarbeets [4, 7]: 0
Cc1ccccc1-n1c(=O)on(C(=O)N(c2cc(OC(C)C)c(Cl)cc2Cl)C(C)C)c1=O [Compound 42]	0	0	0	0	0	0	0	0	0	0	0	0	0	0	0	0	0	0	0	0	Plant response rating, Nutsedge [1, 7]: 0; Nutsedge plant response rating [1, 12]: 0; Rice plant response rating [2, 14]: 0; Plant response rating, Redroot pigweed [3, 7]: 0; Redroot pigweed plant response rating [3, 12]: 2; Sugarbeets plant response rating [4, 6]: 0; Plant response rating, Sugarbeets [4, 7]: 0
Cc1cccc(C(C)C)c1-n1c(=O)on(C(=O)N(c2ccccc2)C(C)C)c1=O [Compound 66]	0	0	0	–	6	0	0	0	0	0	0	0	0	0	0	0	0	0	0	0	Nutsedge plant response rating [1, 16]: 0; Nutsedge plant response rating [1, 17]: 0; Rice plant response rating ([2]; Rate 500 g/ha, listed under Postemergence (flood test species), scale 0 to 10, 0 no effect, 10 complete control): 0; Redroot pigweed plant response rating [3, 16]: 0; Redroot pigweed plant response rating [3, 17]: 4; Sugarbeets plant response rating [4, 6]: 0; Sugarbeets plant response rating [4, 16]: 0; Sugarbeets plant response rating [4, 17]: 0
Cc1cccc(C)c1-n1c(=O)on(C(=O)N(Cc2ccccc2)C(C)C)c1=O [Compound 69]	0	0	0	0	0	0	–	–	–	0	0	0	0	0	0	0	0	0	0	0	Nutsedge plant response rating [1, 16]: 0; Nutsedge plant response rating [1, 17]: 0; Rice plant response rating ([2]; Rate 62 g/ha, headed Pre-emergence (flood test species), scale 0 to 10 (0 no effect, 10 complete control)): 0; Rice plant response rating ([2]; Rate 125 g/ha, Pre-emergence, flood test species, scale 0 to 10 where 0 is no effect and 10 is complete control): 0; Rice plant response rating ([2]; Rate 250 g/ha, headed Pre-emergence (flood test species), scale 0 to 10 (0 no effect, 10 complete control)): 0; Plant response rating, Rice ([2]; Rate 500 g/ha, headed Pre-emergence (flood test species), scale 0 to 10 (0 no effect, 10 complete control)): 0; Redroot pigweed plant response rating [3, 16]: 0; Redroot pigweed plant response rating [3, 17]: 0; Sugarbeets plant response rating [4, 6]: 0; Sugarbeets plant response rating [4, 16]: 0; Sugarbeets plant response rating [4, 17]: 0
